Experimental data as given in ChEMBL document CHEMBL1132704, “Design and synthesis of sulfonyl-substituted 4,5-diarylthiazoles as selective cyclooxygenase-2 inhibitors” (Bioorg Med Chem Lett, 1999).

What was measured:
[1] = target: T1, Prostaglandin G/H synthase 2 (Homo sapiens, UniProt P35354)
T1 sequence (P35354 whole entry): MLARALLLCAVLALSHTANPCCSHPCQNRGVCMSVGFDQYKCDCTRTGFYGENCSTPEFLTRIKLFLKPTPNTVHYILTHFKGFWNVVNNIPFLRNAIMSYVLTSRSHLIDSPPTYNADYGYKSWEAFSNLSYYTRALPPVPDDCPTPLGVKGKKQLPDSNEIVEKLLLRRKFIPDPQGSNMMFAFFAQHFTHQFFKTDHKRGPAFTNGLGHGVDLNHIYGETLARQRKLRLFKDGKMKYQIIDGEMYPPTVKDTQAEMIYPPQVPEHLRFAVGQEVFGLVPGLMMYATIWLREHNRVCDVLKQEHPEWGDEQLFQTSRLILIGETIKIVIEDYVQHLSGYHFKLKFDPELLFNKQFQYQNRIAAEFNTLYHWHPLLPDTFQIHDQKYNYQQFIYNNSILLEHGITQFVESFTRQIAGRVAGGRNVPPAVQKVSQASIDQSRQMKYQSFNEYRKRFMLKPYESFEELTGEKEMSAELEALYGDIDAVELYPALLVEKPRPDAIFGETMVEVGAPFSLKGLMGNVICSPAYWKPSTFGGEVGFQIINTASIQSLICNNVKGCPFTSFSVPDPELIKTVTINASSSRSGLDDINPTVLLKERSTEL

[2] = target: Prostaglandin G/H synthase 1 (Homo sapiens, UniProt P23219)
Rattus norvegicus [3] = test: Compound was evaluated for the percent inhibition of hyperalgesia at an effective dose of 20 mg/kg in rat; format: functional
Rattus norvegicus [4] = test: Compound was evaluated for the antiinflammatory activity in vivo in the carrageenan rat paw edema (CPE); format: functional

Sequence of Prostaglandin G/H synthase 1 (P23219 whole entry): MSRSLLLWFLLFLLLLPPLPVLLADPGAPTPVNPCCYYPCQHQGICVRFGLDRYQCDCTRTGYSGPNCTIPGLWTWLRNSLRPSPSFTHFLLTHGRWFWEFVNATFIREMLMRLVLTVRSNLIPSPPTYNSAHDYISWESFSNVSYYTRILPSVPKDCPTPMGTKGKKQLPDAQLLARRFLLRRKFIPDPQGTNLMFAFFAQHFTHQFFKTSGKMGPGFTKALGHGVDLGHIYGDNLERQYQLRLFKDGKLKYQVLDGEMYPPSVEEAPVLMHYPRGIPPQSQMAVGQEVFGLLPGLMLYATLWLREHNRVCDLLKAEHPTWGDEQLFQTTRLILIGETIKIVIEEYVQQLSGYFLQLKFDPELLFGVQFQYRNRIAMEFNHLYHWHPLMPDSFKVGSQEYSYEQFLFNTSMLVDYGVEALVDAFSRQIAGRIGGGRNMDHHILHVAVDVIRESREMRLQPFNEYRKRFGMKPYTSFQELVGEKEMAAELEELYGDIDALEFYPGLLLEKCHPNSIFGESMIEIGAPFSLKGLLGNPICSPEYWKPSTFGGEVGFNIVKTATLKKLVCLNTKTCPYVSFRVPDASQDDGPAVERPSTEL

| SMILES | IC50 [1] | IC50 [2] | inhibition in vivo at 20 mg/kg (Rattus norvegicus [3]) | ED50 (Rattus norvegicus [4]) |
| --- | --- | --- | --- | --- |
| CS(=O)(=O)c1ccc(-c2sc(CCCc3ccc(Br)cc3)nc2-c2ccc(F)cc2)cc1 | 0.007 µM | > 10 µM | – | – |
| CS(=O)(=O)c1ccc(-c2sc(CCCc3ccccc3)nc2-c2ccc(F)cc2)cc1 | 0.52 µM | > 1000 µM | – | – |
| CS(=O)(=O)c1ccc(-c2sc(-c3ccccc3Cl)nc2-c2ccc(F)cc2F)cc1 | 0.021 µM | – | – | – |
| CS(=O)(=O)c1ccc(-c2sc(-c3ccccc3Cl)nc2-c2cccs2)cc1 | – | > 100 µM | – | – |
| CC(C)(C)c1ccc(-c2nc(-c3ccc(F)cc3)c(-c3ccc(S(C)(=O)=O)cc3)s2)cc1 | > 100 µM | > 100 µM | – | – |
| CS(=O)(=O)c1ccc(-c2sc(-c3ccccc3Cl)nc2-c2cc(F)ccc2F)cc1 | > 100 µM | > 100 µM | – | – |
| CS(=O)(=O)c1ccc(-c2sc(-c3ccccc3Cl)nc2-c2ccsc2)cc1 | – | > 100 µM | – | – |
| CS(=O)(=O)c1ccc(-c2sc(Cc3ccccc3)nc2-c2ccc(F)cc2)cc1 | 0.018 µM | > 100 µM | – | – |
| CS(=O)(=O)c1ccc(-c2sc(-c3cccnc3)nc2-c2ccc(F)cc2)cc1 | 0.43 µM | > 1000 µM | – | – |
| CS(=O)(=O)c1ccc(-c2sc(CCc3ccccc3)nc2-c2ccc(F)cc2)cc1 | 0.032 µM | > 100 µM | – | – |
| CS(=O)(=O)c1ccc(-c2sc(-c3ccccc3Cl)nc2-c2ccccc2F)cc1 | 0.01 µM | > 100 µM | – | – |
| CS(=O)(=O)c1ccc(-c2sc(-c3ccccc3Cl)nc2-c2cccc(F)c2)cc1 | 0.016 µM | > 100 µM | – | – |
| CS(=O)(=O)c1ccc(-c2sc(-c3ccccc3Cl)nc2-c2ccccc2)cc1 | 0.01 µM | > 100 µM | – | – |

Further lines, with some results ahead:

| IC50 [1] | IC50 [2] | SMILES | inhibition in vivo at 20 mg/kg (Rattus norvegicus [3]) | ED50 (Rattus norvegicus [4]) |
| --- | --- | --- | --- | --- |
| 0.021 µM | > 100 µM | CS(=O)(=O)c1ccc(-c2sc(-c3cccs3)nc2-c2ccc(F)cc2)cc1 | – | – |
| 0.11 µM | > 10 µM | Cc1nc(-c2ccc(F)cc2)c(-c2ccc(S(C)(=O)=O)cc2)s1 | – | – |
| 1.6 µM | > 100 µM | CS(=O)(=O)c1ccc(-c2sc(-c3ccncc3)nc2-c2ccc(F)cc2)cc1 | – | – |
| 0.006 µM | 1.07 µM | CS(=O)(=O)c1ccc(-c2nc(C(F)(F)F)sc2-c2ccc(F)cc2)cc1 | – | – |
| 0.11 µM | > 100 µM | CC(C)(C)c1nc(-c2ccc(F)cc2)c(-c2ccc(S(C)(=O)=O)cc2)s1 | – | – |
| 0.023 µM | > 100 µM | CS(=O)(=O)c1ccc(-c2sc(C(F)(F)F)nc2-c2ccc(F)cc2)cc1 | – | – |
| 0.12 µM | > 100 µM | Cc1nc(-c2ccc(S(C)(=O)=O)cc2)c(-c2ccc(F)cc2)s1 | – | – |
| 0.023 µM | 19 µM | CCc1nc(-c2ccc(F)cc2)c(-c2ccc(S(C)(=O)=O)cc2)s1 | – | – |
| 0.05 µM | > 100 µM | CS(=O)(=O)c1ccc(-c2sc(-c3ccccc3Cl)nc2-c2ccc(F)cc2)cc1 | 27% | 20 mg/kg |
| 0.05 µM | > 100 µM | CS(=O)(=O)c1ccc(-c2sc(-c3ccc(Cl)cc3)nc2-c2ccc(F)cc2)cc1 | – | – |
| 0.27 µM | > 10 µM | COc1ccc(-c2nc(-c3ccc(F)cc3)c(-c3ccc(S(C)(=O)=O)cc3)s2)cc1 | – | – |
| 0.61 µM | > 100 µM | CCOC(=O)c1nc(-c2ccc(F)cc2)c(-c2ccc(S(C)(=O)=O)cc2)s1 | – | – |
| 0.54 µM | > 100 µM | CS(=O)(=O)c1ccc(-c2nc(-c3ccccc3)sc2-c2ccc(F)cc2)cc1 | – | – |
| 0.35 µM | > 100 µM | CS(=O)(=O)c1ccc(-c2sc(CC#N)nc2-c2ccc(F)cc2)cc1 | – | – |
| > 30 µM | > 100 µM | CS(=O)(=O)c1ccc(-c2sc(-c3ccccc3)nc2-c2ccc(F)cc2)cc1 | – | – |
